Assay results as given in patent US8952024B2, “Herbicidal pyrimidone derivatives” (E I du Pont de Nemours and Company, priority 2009, dated 2015).

Experiments:
Format in all cases: in vivo
[1] = test system: chickweed (Stellaria media); assay: Test B postemergence plant response
Summary of the method: (§1)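 Plants at the 1- to 4-leaf stage (2 to 18 cm tall), grown in pots of peat moss/vermiculite medium with wetting agent and starter nutrients, received postemergence applications of test chemicals. After 13 to 15 days in a greenhouse, injury was rated visually against untreated controls on a 0 (no effect) to 100 (complete control) scale.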

[2] = test system: winter barley (Hordeum vulgare); assay: Test B postemergence plant response
Summary of the method: as §1

[3] = test system: canarygrass (Phalaris minor); assay: Test B postemergence plant response
Summary of the method: as §1

[4] = test system: windgrass (Apera spica-venti); assay: Test B postemergence plant response
Summary of the method: as §1

[5] = test system: nightshade (eastern black nightshade, Solanum ptycanthum); assay: Test B pre-/postemergence plant response; conditions: Preemergence
Summary of the method: (§2)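 Compound in solvent + surfactant applied pre-em (loam/sand) or post-em (plants 2–18 cm, peat medium); greenhouse hold 13–15 days; visual 0–100 control score.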

[6] = test system: sunflower (common oilseed sunflower, Helianthus annuus); assay: Test B pre-/postemergence plant response; conditions: Preemergence
Summary of the method: as §2

[7] = test system: galium (catchweed bedstraw, Galium aparine); assay: Test B pre-/postemergence plant response; conditions: Preemergence
Summary of the method: as §2

[8] = test system: barnyardgrass (Echinochloa crus-galli); assay: Test A pre-/postemergence plant response
Summary of the method: (§3)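 Seeds planted in loam soil/sand blend; test chemicals in non-phytotoxic solvent mixture with surfactant applied as directed soil spray preemergence and, concurrently, postemergence to plants 2–10 cm tall at one- to two-leaf stage. Greenhouse ~10 days; visual injury vs untreated controls, 0 (no effect) to 100 (complete control).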

corn (Zea mays) = assay: Test A pre-/postemergence plant response
Summary of the method: as §3

[9] = test system: large crabgrass (Digitaria sanguinalis); assay: Test A pre-/postemergence plant response
Summary of the method: as §3

[10] = test system: giant foxtail (Setaria faberii); assay: Test A pre-/postemergence plant response; conditions: approx. ten days; for Foxtail, Giant plant response rating: 125 g ai/ha; for Plant response rating, Foxtail, Giant: 500 g ai/ha
Summary of the method: as §3

[11] = test system: velvetleaf (Abutilon theophrasti); assay: Test A pre-/postemergence plant response
Summary of the method: as §3

[12] = test system: wheat (Triticum aestivum); assay: Test A pre-/postemergence plant response
Summary of the method: as §3

[13] = 31 g ai/ha, postemergence, scale 0 to 100, 0 is no effect, 100 is complete control
[14] = Postemergence, 62 g ai/ha, scale 0 (no effect) to 100 (complete control), 13 to 15 days
[15] = Postemergence, 125 g ai/ha, visual rating after 13 to 15 days, scale 0 (no effect) to 100 (complete control)
[16] = Postemergence, 250 g ai/ha, scale 0 to 100 (0 no effect, 100 complete control)
[17] = 31 g ai/ha, scale 0 to 100 (0 no effect, 100 complete control)
[18] = 62 g ai/ha, scale 0 to 100, 0 no effect, 100 complete control
[19] = 125 g ai/ha, scale 0 to 100, 0 no effect, 100 complete control
[20] = Postemergence, 125 g ai/ha, visual injury, 0 to 100 scale (0 no effect, 100 complete control), approx. ten days
[21] = Postemergence, 500 g ai/ha, 0 to 100 scale, 0 = no effect, 100 = complete control, approx. ten days
[22] = Preemergence, 125 g ai/ha, 0 to 100 scale, 0 = no effect, 100 = complete control
[23] = Preemergence, 500 g ai/ha, visual injury, 0 to 100 scale (0 no effect, 100 complete control), approx. ten days
[24] = Postemergence, visual injury, 0 to 100 scale (0 no effect, 100 complete control)
[25] = Postemergence, 0 to 100 scale, 0 = no effect, 100 = complete control
[26] = Preemergence, visual injury, 0 to 100 scale (0 no effect, 100 complete control)
[27] = 62 g ai/ha, postemergence, 0 is no effect, 100 is complete control, 13 to 15 days

## O=C1CCCC(O)=C1C(=O)c1cnc(-c2cccs2)n(-c2ccccc2)c1=O [Compound 66]
[1]; [13]
  Plant response rating, Chickweed: 80
[1]; [14]
  Plant response rating, Chickweed: 85
[1]; [15]
  Plant response rating, Chickweed: 95
[1]; [16]
  Plant response rating, Chickweed: 98
[2]; [13]
  Plant response rating, Barley: 0
[2]; [14]
  Plant response rating, Barley: 0
[2]; [15]
  Plant response rating, Barley: 0
[2]; [16]
  Plant response rating, Barley: 0
[3]; [13]
  Plant response rating, Canarygrass: 0
[3]; [14]
  Plant response rating, Canarygrass: 0
[3]; [15]
  Plant response rating, Canarygrass: 0
[3]; [16]
  Plant response rating, Canarygrass: 0
[4]; [13]
  Plant response rating, Windgrass: 60
[4]; [14]
  Plant response rating, Windgrass: 60
[4]; [15]
  Plant response rating, Windgrass: 70
[4]; [16]
  Plant response rating, Windgrass: 80
[5]; [17]
  Plant response rating, Nightshade: 80
[5]; [18]
  Plant response rating, Nightshade: 95
[5]; [19]
  Plant response rating, Nightshade: 98
[6]; [17]
  Plant response rating, Sunflower: 0
[6]; [18]
  Plant response rating, Sunflower: 0
[6]; [19]
  Plant response rating, Sunflower: 0
[7]; 250 g ai/ha, 0 to 100 scale
  Plant response rating, Galium: 0
[7]; [17]
  Plant response rating, Galium: 0
[7]; [18]
  Plant response rating, Galium: 0
[7]; [19]
  Plant response rating, Galium: 0
[8]; [20]
  Barnyardgrass plant response rating: 80
[8]; [21]
  Plant response rating, Barnyardgrass: 90
[8]; [22]
  Plant response rating, Barnyardgrass: 20
[8]; [23]
  Plant response rating, Barnyardgrass: 70
Corn (Zea mays); [21]
  Plant response rating, Corn: 60
Corn (Zea mays); [22]
  Plant response rating, Corn: 0
Corn (Zea mays); [23]
  Plant response rating, Corn: 0
[9]; [20]
  Crabgrass, Large plant response rating: 70
[9]; [21]
  Plant response rating, Crabgrass, Large: 90
[9]; [22]
  Plant response rating, Crabgrass, Large: 90
[9]; [23]
  Plant response rating, Crabgrass, Large: 100
[10]; [24]
  Foxtail, Giant plant response rating: 70
[10]; [25]
  Plant response rating, Foxtail, Giant: 80
[10]; [26]
  Plant response rating, Foxtail, Giant: 80
[11]; [20]
  Velvetleaf plant response rating: 100
[11]; [21]
  Plant response rating, Velvetleaf: 100
[11]; [22]
  Plant response rating, Velvetleaf: 70
[11]; [23]
  Plant response rating, Velvetleaf: 100
[12]; [20]
  Wheat plant response rating: 0
[12]; [21]
  Plant response rating, Wheat: 0
[12]; [22]
  Plant response rating, Wheat: 0
[12]; [23]
  Plant response rating, Wheat: 0

## CC(C)Cc1ncc(C(=O)C2=C(O)CCCC2=O)c(=O)n1-c1ccccc1 [Compound 68]
[1]; [13]
  Plant response rating, Chickweed: 85
[1]; [27]
  Chickweed plant response rating (0 to 100 scale): 90
[1]; [15]
  Plant response rating, Chickweed: 98
[1]; [16]
  Plant response rating, Chickweed: 100
[2]; [13]
  Plant response rating, Barley: 0
[2]; [27]
  Barley plant response rating (0 to 100 scale): 0
[2]; [15]
  Plant response rating, Barley: 25
[2]; [16]
  Plant response rating, Barley: 30
[3]; [13]
  Plant response rating, Canarygrass: 0
[3]; [27]
  Canarygrass plant response rating (0 to 100 scale): 0
[3]; [15]
  Plant response rating, Canarygrass: 35
[3]; [16]
  Plant response rating, Canarygrass: 35
[4]; [13]
  Plant response rating, Windgrass: 40
[4]; [27]
  Windgrass plant response rating (0 to 100 scale): 50
[4]; [15]
  Plant response rating, Windgrass: 65
[4]; [16]
  Plant response rating, Windgrass: 85
[5]; [17]
  Plant response rating, Nightshade: 98
[5]; [18]
  Plant response rating, Nightshade: 98
[5]; [19]
  Plant response rating, Nightshade: 100
[6]; [17]
  Plant response rating, Sunflower: 0
[6]; [18]
  Plant response rating, Sunflower: 60
[6]; [19]
  Plant response rating, Sunflower: 75
[7]; 250 g ai/ha, 0 to 100 scale
  Plant response rating, Galium: 85
[7]; [17]
  Plant response rating, Galium: 0
[7]; [18]
  Plant response rating, Galium: 70
[7]; [19]
  Plant response rating, Galium: 70
[8]; [20]
  Barnyardgrass plant response rating: 80
[8]; [21]
  Plant response rating, Barnyardgrass: 90
[8]; [22]
  Plant response rating, Barnyardgrass: 0
[8]; [23]
  Plant response rating, Barnyardgrass: 50
Corn (Zea mays); [20]
  Corn plant response rating: 0
Corn (Zea mays); [21]
  Plant response rating, Corn: 10
Corn (Zea mays); [22]
  Plant response rating, Corn: 0
Corn (Zea mays); [23]
  Plant response rating, Corn: 0
[9]; [20]
  Crabgrass, Large plant response rating: 80
[9]; [21]
  Plant response rating, Crabgrass, Large: 100
[9]; [22]
  Plant response rating, Crabgrass, Large: 70
[9]; [23]
  Plant response rating, Crabgrass, Large: 100
[10]; [24]
  Foxtail, Giant plant response rating: 50
[10]; [25]
  Plant response rating, Foxtail, Giant: 70
[10]; [26]
  Plant response rating, Foxtail, Giant: 60
[11]; [20]
  Velvetleaf plant response rating: 100
[11]; [21]
  Plant response rating, Velvetleaf: 100
[11]; [22]
  Plant response rating, Velvetleaf: 70
[11]; [23]
  Plant response rating, Velvetleaf: 100
[12]; [20]
  Wheat plant response rating: 0
[12]; [21]
  Plant response rating, Wheat: 0
[12]; [22]
  Plant response rating, Wheat: 0
[12]; [23]
  Plant response rating, Wheat: 0
